31 compounds from US20080261994A1, “CYCLOPROPANE COMPOUNDS AND PHARMACEUTICAL USE THEREOF” (Japan Tobacco Inc., priority 2003, published 2008) can be followed below.

Broadly, the IC50 is the concentration needed to halve the response being measured.

Assay type in all cases: biochemical
Assay [1] deals with T1, aggrecanase-1 (Homo sapiens, UniProt O75173).
T1 sequence (O75173 213-837): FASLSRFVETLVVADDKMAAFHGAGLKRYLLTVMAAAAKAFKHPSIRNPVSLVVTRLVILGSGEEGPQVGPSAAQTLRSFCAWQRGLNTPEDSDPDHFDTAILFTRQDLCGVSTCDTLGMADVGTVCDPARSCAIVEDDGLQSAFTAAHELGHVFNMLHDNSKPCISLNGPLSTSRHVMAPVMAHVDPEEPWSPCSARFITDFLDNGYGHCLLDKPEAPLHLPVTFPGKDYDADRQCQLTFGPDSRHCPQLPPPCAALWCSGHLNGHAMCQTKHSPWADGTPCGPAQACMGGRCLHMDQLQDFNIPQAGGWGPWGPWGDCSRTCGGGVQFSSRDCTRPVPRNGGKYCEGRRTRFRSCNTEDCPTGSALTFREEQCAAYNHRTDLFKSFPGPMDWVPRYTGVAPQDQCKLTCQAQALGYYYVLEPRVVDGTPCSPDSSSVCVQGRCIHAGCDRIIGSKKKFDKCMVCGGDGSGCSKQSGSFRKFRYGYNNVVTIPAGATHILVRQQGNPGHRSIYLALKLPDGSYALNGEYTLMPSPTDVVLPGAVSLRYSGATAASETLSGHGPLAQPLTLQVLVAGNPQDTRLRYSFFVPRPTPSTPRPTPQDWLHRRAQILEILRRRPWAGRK
The experiment in a line: Aggrecanase-1 inhibitory action (Particle Assay, GAG release from aggrecan-containing polyacrylamide particles). As to conditions: Experimental Example 1; read-out: IC50 AG1. An outline of the steps:
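Readout was dimethylmethylene blue absorbance (595 nm) of glycosaminoglycan liberated into supernatant, calibrated with whale chondroitin sulfate. Substrate was aggrecan in polyacrylamide particles, digested 15 h at 37° C in Tris-HCl; TC50 (μM) derived from inhibition relative to no-enzyme and no-inhibitor controls.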

For assay [2], the target named is T2, MMP-1 (Homo sapiens, UniProt P03956).
T2 sequence (P03956 100-469): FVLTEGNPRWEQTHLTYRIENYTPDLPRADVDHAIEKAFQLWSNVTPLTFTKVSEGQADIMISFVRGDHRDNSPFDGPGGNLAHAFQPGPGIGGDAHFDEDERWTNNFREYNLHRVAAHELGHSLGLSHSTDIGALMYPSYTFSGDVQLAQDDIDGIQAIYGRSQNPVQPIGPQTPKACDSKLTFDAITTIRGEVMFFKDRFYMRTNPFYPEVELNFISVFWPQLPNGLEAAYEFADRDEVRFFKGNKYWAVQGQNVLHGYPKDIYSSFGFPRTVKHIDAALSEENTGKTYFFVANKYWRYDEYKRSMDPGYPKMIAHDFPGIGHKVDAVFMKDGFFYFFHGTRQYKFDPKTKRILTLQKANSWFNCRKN
Put plainly: MMP-1 inhibitory action (Type I collagen Activity Measurement kit, FITC-labeled collagen type I). As to conditions: Experimental Example 2; read-out: IC50 MMP1.

The target of assay [3] is T3, Recombinant Human MMP-13 (Homo sapiens, UniProt P45452).
T3 construct: purchased R&D systems 511-MM
The experiment in a line: MMP-13 inhibitory activity (MMP-13 specific fluorescent substrate with quencher). As to conditions: Experimental Example 3; read-out: IC50 MMP13. In outline:
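IC50 (μM) derived from % inhibition, normalised to wells without enzyme and without inhibitor, fluorescence read at 325/405 nm. Enzyme and compound preceded addition of the quenched 7-MCA…DPA substrate; Tris-HCl buffer, 25 °C for 1 h, acetic-acid stop.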

On to `CCCC(=O)NCC1(c2ccccc2)CC1(NS(=O)(=O)c1ccc(-c2ccc(Cl)cc2)s1)C(=O)O` (stereo not drawn) [Example 2-377], for which the IC50 in assay [1] is less than 1000 nM; in assay [2], no less than 1000 nM; in assay [3], less than 1000 nM.

Take `CN(C)C(=O)NCC1(c2ccccc2)CC1(NS(=O)(=O)c1ccc(-c2ccc(Cl)cc2)s1)C(=O)O` (stereo not drawn) [Example 2-378]: the IC50 in assay [1] was less than 1000 nM; in assay [2] it was no less than 1000 nM; in assay [3], less than 1000 nM.

On to `O=C(NCC1(c2ccccc2)CC1(NS(=O)(=O)c1ccc(-c2ccc(Cl)cc2)s1)C(=O)O)C1CC1` (stereo not drawn) [Example 2-379], for which the IC50 in assay [1] is less than 1000 nM; in assay [2] it was no less than 1000 nM; in assay [3] it was less than 1000 nM.

For `O=C(NCC1(c2ccccc2)CC1(NS(=O)(=O)c1ccc(-c2ccc(Cl)cc2)s1)C(=O)O)C1CCCCC1` (stereo not drawn) [Example 2-380], the IC50 in assay [1] is less than 1000 nM; in assay [2], no less than 10000 nM; in assay [3], less than 1000 nM.

As to `O=C(NCC1(c2ccccc2)CC1(NS(=O)(=O)c1ccc(-c2ccc(Cl)cc2)s1)C(=O)O)N1CCOCC1` (stereo not drawn) [Example 2-381], the IC50 was less than 1000 nM in assay [1], no less than 10000 nM in assay [2] and less than 1000 nM in assay [3].

Turning to `C[C@]1(c2ccccc2)C[C@@]1(NS(=O)(=O)c1ccc(-c2cc(C(F)F)on2)s1)C(=O)O` [Example 2-382], the IC50 in assay [1] is less than 100 nM; in assay [2] it was less than 1000 nM; in assay [3], less than 1000 nM.

Regarding `O=C(O)C1(NS(=O)(=O)c2ccc(-c3cc(C(F)F)on3)s2)C2CCCc3ccccc3C21` (stereo not drawn) [Example 2-383], the IC50 is less than 100 nM in assay [1], less than 1000 nM in assay [2] and less than 100 nM in assay [3].

As to `CCOC(=O)NCC1(c2ccccc2)CC1(NS(=O)(=O)c1ccc(-c2ccc(Cl)cc2)s1)C(=O)O` (stereo not drawn) [Example 2-384], the IC50 is less than 1000 nM in assay [1], no less than 10000 nM in assay [2] and less than 100 nM in assay [3].

For `O=C(NCC1(c2ccccc2)CC1(NS(=O)(=O)c1ccc(-c2ccc(Cl)cc2)s1)C(=O)O)[C@@H]1CCCO1` (stereo partly drawn) [Example 2-385], the IC50 in assay [1] is less than 1000 nM; in assay [2], no less than 10000 nM; in assay [3] it was less than 1000 nM.

On to `COCC1(c2ccccc2)CC1(NS(=O)(=O)c1ccc(-c2ccc(Cl)cc2)s1)C(=O)O` (stereo not drawn) [Example 2-386], for which the figures for the IC50 in assay [1], in assay [2] and in assay [3] were less than 1000 nM, no less than 1000 nM and less than 1000 nM, respectively.

As for `Cn1cc(-c2ccc(S(=O)(=O)N[C@@]3(C(=O)O)C[C@@H]3c3ccccc3)s2)cn1` [Example 2-387], the IC50 in assay [1] was no less than 1000 nM; in assay [2], no less than 10000 nM; in assay [3], less than 1000 nM.

Consider `O=C(O)[C@]1(NS(=O)(=O)c2ccc(-c3ccc([N+](=O)[O-])cc3)s2)C[C@@H]1c1ccccc1` [Example 2-388], for which the IC50 was less than 1000 nM in assay [1], no less than 1000 nM in assay [2] and less than 1000 nM in assay [3].

In the case of `O=C(O)C1(NS(=O)(=O)c2ccc(-c3ccc(Cl)cc3)s2)C2CCNc3ccccc3C21` (stereo not drawn) [Example 2-389], the values for the IC50 in assay [1], in assay [2] and in assay [3] were less than 100 nM, no less than 1000 nM and less than 100 nM, respectively.

In the case of `O=C(NO)C1(NS(=O)(=O)c2ccc(OCc3ccc(Cl)cc3Cl)cc2)C2CCCc3ccccc3C21` (stereo not drawn) [Example 2-390], the IC50 is less than 1000 nM in assay [1], no less than 10000 nM in assay [2] and no less than 1000 nM in assay [3].

`O=C(NO)C1(NS(=O)(=O)c2ccc(-c3ccc(Cl)cc3)s2)C2CCCc3ccccc3C21` (stereo not drawn) [Example 2-391]: the IC50 was no less than 1000 nM in assay [1], no less than 10000 nM in assay [2] and less than 1000 nM in assay [3].

Consider `CC(C)NCC1(c2ccccc2)CC1(NS(=O)(=O)c1ccc(-c2ccc(Cl)cc2)s1)C(=O)O` (stereo not drawn) [Example 2-392], for which the IC50 in assay [1] is no less than 1000 nM; in assay [2], no less than 10000 nM; in assay [3], no less than 1000 nM.

For `O=C(O)C1(NS(=O)(=O)c2ccc(-c3ccc(Cl)cc3)s2)CC1(CNCc1nccs1)c1ccccc1` (stereo not drawn) [Example 2-393], the IC50 is less than 1000 nM in assay [1], no less than 1000 nM in assay [2] and less than 100 nM in assay [3].

Consider `O=C(NCC1(c2ccccc2)CC1(NS(=O)(=O)c1ccc(-c2ccc(Cl)cc2)s1)C(=O)O)c1cccnc1` (stereo not drawn) [Example 2-394], for which the IC50 was less than 1000 nM in assay [1], no less than 1000 nM in assay [2] and less than 100 nM in assay [3].

Turning to `O=C(CCO)NCC1(c2ccccc2)CC1(NS(=O)(=O)c1ccc(-c2ccc(Cl)cc2)s1)C(=O)O` (stereo not drawn) [Example 2-395], the figures for the IC50 in assay [1], in assay [2] and in assay [3] were less than 1000 nM, no less than 10000 nM and less than 1000 nM, respectively.

Consider `CCNC(=O)NCC1(c2ccccc2)CC1(NS(=O)(=O)c1ccc(-c2ccc(Cl)cc2)s1)C(=O)O` (stereo not drawn) [Example 2-396], for which the IC50 was less than 1000 nM in assay [1], no less than 10000 nM in assay [2] and less than 1000 nM in assay [3].

`CC(C)C(=O)NCC1(c2ccccc2)CC1(NS(=O)(=O)c1ccc(-c2ccc(Cl)cc2)s1)C(=O)O` (stereo not drawn) [Example 2-397]: the IC50 was less than 1000 nM in assay [1], no less than 10000 nM in assay [2] and less than 1000 nM in assay [3].

On to `COCC(=O)NCC1(c2ccccc2)CC1(NS(=O)(=O)c1ccc(-c2ccc(Cl)cc2)s1)C(=O)O` (stereo not drawn) [Example 2-398], for which the results for the IC50 in assay [1], in assay [2] and in assay [3] were less than 1000 nM, no less than 10000 nM and less than 1000 nM, respectively.

On to `O=C(CO)NCC1(c2ccccc2)CC1(NS(=O)(=O)c1ccc(-c2ccc(Cl)cc2)s1)C(=O)O` (stereo not drawn) [Example 2-399], for which the values for the IC50 in assay [1], in assay [2] and in assay [3] were less than 1000 nM, no less than 1000 nM and less than 1000 nM, respectively.

`O=C1COCCN1CC1(c2ccccc2)CC1(NS(=O)(=O)c1ccc(-c2ccc(Cl)cc2)s1)C(=O)O` (stereo not drawn) [Example 2-400]: the results for the IC50 in assay [1], in assay [2] and in assay [3] were no less than 1000 nM, no less than 1000 nM and less than 1000 nM, respectively.

For `CC1[C@H](c2ccccc2)[C@]1(NS(=O)(=O)c1ccc(-c2cc(C(F)F)on2)cc1)C(=O)O` (stereo partly drawn) [Example 2-401], the figures for the IC50 in assay [1], in assay [2] and in assay [3] were less than 100 nM, less than 1000 nM and less than 100 nM, respectively.

In the case of `COCc1cc(-c2ccc(S(=O)(=O)N[C@@]3(C(=O)O)C[C@]3(C)c3ccccc3)s2)no1` [Example 2-403], the figures for the IC50 in assay [1], in assay [2] and in assay [3] were less than 1000 nM, less than 1000 nM and less than 100 nM, respectively.

Turning to `COCc1cc(-c2ccc(S(=O)(=O)N[C@@]3(C(=O)O)C(C)[C@@H]3c3ccccc3)s2)no1` (stereo partly drawn) [Example 2-404], the IC50 was less than 100 nM in assay [1], less than 1000 nM in assay [2] and less than 100 nM in assay [3].

As for `O=C(O)COCC1(c2ccccc2)CC1(NS(=O)(=O)c1ccc(-c2ccc(Cl)cc2)s1)C(=O)O` (stereo not drawn) [Example 2-405], the IC50 in assay [1] was less than 100 nM; in assay [2], no less than 10000 nM; in assay [3], less than 1000 nM.

For the compound `C[C@]1(c2ccccc2)C[C@@]1(NS(=O)(=O)c1ccc(-c2ccc(Cl)cc2F)s1)C(=O)O` [Example 2-406], the values for the IC50 in assay [1], in assay [2] and in assay [3] were less than 100 nM, less than 1000 nM and less than 100 nM, respectively.

In the case of `CC1[C@H](c2ccccc2)[C@]1(NS(=O)(=O)c1ccc(-c2ccc(Cl)cc2F)s1)C(=O)O` (stereo partly drawn) [Example 2-407], the IC50 in assay [1] was less than 100 nM; in assay [2], less than 1000 nM; in assay [3] it was less than 100 nM.

As for `CC(C)c1cc(-c2ccc(S(=O)(=O)N[C@@]3(C(=O)O)C(C)[C@@H]3c3ccccc3)s2)no1` (stereo partly drawn) [Example 2-408], the IC50 in assay [1] was less than 100 nM; in assay [2], less than 1000 nM; in assay [3] it was less than 100 nM.
